From PubChem BioAssay (NCI)
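1) Cells in 96-well plates. 2) Compound, 48 h, 5 concentrations. 3) Linear interpolation between surrounding doses. 4) Unreached endpoint = highest concentration. Here, GI50 denotes the concentration required for 50% inhibition of growth. TGI: total growth inhibition.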

Assays:
Experiment in all cases: NCI tumour cell line growth inhibition, 48 h
HT29 colon = system: HT29 colon
OVCAR-4 ovarian = system: OVCAR-4 ovarian
LOX IMVI melanoma = system: LOX IMVI melanoma
MOLT-4 leukemia = system: MOLT-4 leukemia
UACC-257 melanoma = system: UACC-257 melanoma
UO-31 renal = system: UO-31 renal
MALME-3M melanoma = system: MALME-3M melanoma
HCC-2998 colon = system: HCC-2998 colon
NCI/ADR-RES ovarian = system: NCI/ADR-RES ovarian
RXF 393 renal = system: RXF 393 renal

SMILES | GI50 (HT29 colon) [µM] | TGI (HT29 colon) [µM] | GI50 (OVCAR-4 ovarian) [µM] | TGI (OVCAR-4 ovarian) [µM] | GI50 (LOX IMVI melanoma) [µM] | TGI (LOX IMVI melanoma) [µM] | GI50 (MOLT-4 leukemia) [µM] | TGI (MOLT-4 leukemia) [µM] | GI50 (UACC-257 melanoma) [µM] | TGI (UACC-257 melanoma) [µM] | GI50 (UO-31 renal) [µM] | TGI (UO-31 renal) [µM] | GI50 (MALME-3M melanoma) [µM] | TGI (MALME-3M melanoma) [µM] | GI50 (HCC-2998 colon) [nM] | TGI (HCC-2998 colon) [µM] | GI50 (NCI/ADR-RES ovarian) [nM] | TGI (NCI/ADR-RES ovarian) [µM] | GI50 (RXF 393 renal) [µM] | TGI (RXF 393 renal) [µM]
CC(=O)[CH-]C(=O)c1ccccc1.CC(=O)[CH-]C(=O)c1ccccc1.CC12CC3(C)CC(C)(C1)CC([O-])(C2)C3.CC[O-].[Ti+4] | 27 | > 100 | 17.9 | 53.3 | 13.2 | 31.1 | 28.9 | > 100 | 27.9 | 76.1 | 16 | 57.5 | 17.5 | 47 | – | – | – | – | – | –
C=C(CN(CCN1CCOCC1)CC(=C)c1ccc(C(=O)Nc2ccccc2N)cc1)c1ccc(C(=O)Nc2ccccc2N)cc1 | – | – | 10.5 | > 50 | 1.07 | 6.47 | – | – | 3.68 | 13.5 | 5.2 | 11.4 | – | – | 874 | 3.05 | 1310 | 4.92 | 11.9 | 23.6
COC(=O)NN=C1C(C)(C)C(=NNC(=O)OC)C1(C)C | – | > 53.6 | – | > 100 | – | > 50.9 | – | > 100 | – | > 100 | – | > 100 | – | > 100 | – | > 100 | – | – | – | > 100
CC(C)(C)[Si](Nc1ccccc1)(c1ccccc1)c1ccccc1 | – | 28.7 | – | 27.1 | – | 26.1 | – | 26.2 | – | 28.4 | – | 18.5 | – | 41.8 | – | 30.7 | – | – | – | 26.5
O/N=C1/C(=C/c2ccc(Cl)cc2)CCCC1C(NO)c1ccc(Cl)cc1 (stereo not given) | – | 36.6 | – | 32.8 | – | – | – | 37.2 | – | 31.6 | – | 63.4 | – | 64.6 | – | 47.4 | – | – | – | 29.6
O=C(Cc1nc2ccccc2s1)C(=O)Nc1ccc(Cl)cc1Cl | – | > 100 | – | > 100 | – | > 100 | – | > 100 | – | > 100 | – | > 100 | – | > 100 | – | > 100 | – | – | – | –
CN(C)NC(=S)NC12CC3CC(CC(C3)C1)C2 | – | > 100 | – | > 100 | – | > 100 | – | > 100 | – | > 100 | – | > 100 | – | > 100 | – | > 100 | – | – | – | > 100
CCCCCC/C=C/CCCCCCCc1cccc(O)c1C(=O)O | – | > 100 | – | > 100 | – | > 100 | – | > 100 | – | > 100 | – | > 100 | – | > 100 | – | – | – | – | – | –
C[n+]1ccc2[nH]c3ccccc3c2c1 | – | > 100 | – | > 100 | – | > 100 | – | > 100 | – | > 100 | – | > 100 | – | 99.4 | – | > 100 | – | – | – | > 100
Cn1c(=O)c2[nH]cnc2n(CC(=O)O)c1=O | – | > 100 | – | – | – | – | – | > 100 | – | – | – | > 100 | – | > 100 | – | – | – | – | – | –
O=C(Nc1ccccc1)OCc1nc2c([nH]1)C(=O)C=CC2=O | – | 58.5 | – | 28 | – | 30.9 | – | 6.71 | – | 13.7 | – | 30.5 | – | 18.3 | – | 30.1 | – | – | – | 23
